Results published in the NIST ThermoML archive (doi:10.1016/j.fluid.2011.11.020).
Numbers after ± are expanded uncertainties. Each block holds one compound with its values, some of them ahead of it.

Conditions: Liquid, Ebulliometric method (Recirculating still)

vapor or sublimation pressure (370.27 K): 97.43 ± 0.14 kPa
vapor or sublimation pressure (370.74 K): 98.52 ± 0.15 kPa
vapor or sublimation pressure (370.93 K): 99.39 ± 0.17 kPa
vapor or sublimation pressure (371.13 K): 99.78 ± 0.16 kPa
vapor or sublimation pressure (371.52 K): 101.07 ± 0.17 kPa
vapor or sublimation pressure (372.25 K): 103.43 ± 0.11 kPa
vapor or sublimation pressure (372.36 K): 103.56 ± 0.17 kPa
vapor or sublimation pressure (372.56 K): 104.41 ± 0.15 kPa
vapor or sublimation pressure (372.76 K): 104.67 ± 0.17 kPa
vapor or sublimation pressure (372.97 K): 105.83 ± 0.19 kPa
vapor or sublimation pressure (373.17 K): 106.29 ± 0.14 kPa
vapor or sublimation pressure (373.48 K): 107.02 ± 0.14 kPa
Normal boiling temperature: 98.49 ± 0.2 °C
Compound: CCCCCCC [heptane]

Normal boiling temperature: 84.27 ± 0.2 °C
Compound: c1ccsc1 [thiophene]

More lines, now with the values behind:

Compound: CCC(C)C [2-methylbutane]
Normal boiling temperature: 28.00 ± 0.2 °C

Compound: CC(C)=C(C)C [2,3-dimethyl-2-butene]
Normal boiling temperature: 73.00 ± 0.21 °C

Compound: C=C(C)C(C)C [2,3-dimethyl-1-butene]
Normal boiling temperature: 55.73 ± 0.2 °C
